Source: patent US20230159546A1, “NOVEL SPIROPYRROLIDINE DERIVED ANTIVIRAL AGENTS” (Enanta Pharmaceuticals, Inc., priority 2021, published 2023)

Molecular target: SARS-CoV-2 3CL-protease (Severe acute respiratory syndrome coronavirus 2, UniProt P0DTD1)
Experiment: SARS-CoV-2 3C-like (3CL) protease fluorescence assay (FRET)
Assay type: biochemical
Conditions: recombinant SARS-CoV-2 3CL-protease 10 nM, 30 min preincubation at RT, duplicate; read-out: FRET IC50

Row | SMILES | IC50 [nM]
1 | N#C[C@@H]1C[C@@]2(CN1C(=O)C(=O)NCC13CC4CC(CC(C4)C1)C3)C(=O)Nc1ccccc12 [Example 158] | < 100
2 | N#C[C@@H]1C[C@@]2(CN1C(=O)C(=O)NCCc1ccccc1)C(=O)Nc1ccccc12 [Example 159] | > 1000
3 | N#C[C@@H]1C[C@@]2(CN1C(=O)C(=O)NCCCc1ccccc1)C(=O)Nc1ccccc12 [Example 160] | 100 to 1000
4 | N#C[C@@H]1C[C@@]2(CN1C(=O)C(=O)Nc1cc(C(F)(F)F)ccn1)C(=O)Nc1ccccc12 [Example 161] | > 1000
5 | N#C[C@@H]1C[C@@]2(CN1C(=O)C(=O)Nc1ccc(C(F)(F)F)cn1)C(=O)Nc1ccccc12 [Example 162] | > 1000
6 | Cc1ccc(NC(=O)C(=O)N2C[C@]3(C[C@H]2C#N)C(=O)Nc2ccccc23)nc1 [Example 163] | > 1000
7 | N#C[C@@H]1C[C@@]2(CN1C(=O)C(=O)Nc1ccc(C(F)(F)F)nc1)C(=O)Nc1ccccc12 [Example 164] | > 1000
8 | N#C[C@@H]1C[C@@]2(CN1C(=O)C(=O)Nc1cccnc1C(F)(F)F)C(=O)Nc1ccccc12 [Example 165] | > 1000
9 | N#C[C@@H]1C[C@@]2(CN1C(=O)C(=O)Nc1cccc(C(F)(F)F)n1)C(=O)Nc1ccccc12 [Example 166] | > 1000
10 | N#C[C@@H]1C[C@@]2(CN1C(=O)C(=O)Nc1ccnc(C(F)(F)F)c1)C(=O)Nc1ccccc12 [Example 167] | > 1000
11 | Cc1cccc(NC(=O)C(=O)N2C[C@]3(C[C@H]2C#N)C(=O)Nc2ccccc23)n1 [Example 168] | > 1000
12 | CC(=O)N[C@H]1CC[C@@H](NC(=O)C(=O)N2C[C@]3(C[C@H]2C#N)C(=O)Nc2ccccc23)CC1 [Example 169] | > 1000
13 | N#C[C@@H]1C[C@@]2(CN1C(=O)CC(=O)N[C@@H]1CCC[C@@H]1O)C(=O)Nc1ccccc12 [Example 170] | > 1000
14 | N#C[C@@H]1C[C@@]2(CN1C(=O)CC(=O)N[C@H]1CCC[C@@H]1O)C(=O)Nc1ccccc12 [Example 171] | > 1000
15 | N#C[C@@H]1C[C@@]2(CN1C(=O)CC(=O)N[C@@H]1CCC[C@H]1O)C(=O)Nc1ccccc12 [Example 172] | > 1000
16 | N#C[C@@H]1C[C@@]2(CN1C(=O)CC(=O)N[C@H]1CCC[C@H]1O)C(=O)Nc1ccccc12 [Example 173] | > 1000

Row | SMILES | IC50 [nM]
17 | CC(C)(C)OC(=O)N[C@@H]1CC[C@H](NC(=O)C(=O)N2C[C@]3(C[C@H]2C#N)C(=O)Nc2ccccc23)C1 [Example 174] | > 1000
18 | N#C[C@@H]1C[C@@]2(CN1C(=O)C(=O)NC1(c3ccccc3)CCCC1)C(=O)Nc1ccccc12 [Example 175] | < 100
19 | N#C[C@@H]1C[C@@]2(CN1C(=O)C(=O)Nc1cnccc1C(F)(F)F)C(=O)Nc1ccccc12 [Example 176] | > 1000
20 | C[C@]1(O)CC[C@H](NC(=O)C(=O)N2C[C@]3(C[C@H]2C#N)C(=O)Nc2ccccc23)CC1 [Example 177] | > 1000
21 | C[C@]1(O)CC[C@@H](NC(=O)C(=O)N2C[C@]3(C[C@H]2C#N)C(=O)Nc2ccccc23)CC1 [Example 178] | > 1000
22 | CC1(NC(=O)C(=O)N2C[C@]3(C[C@H]2C#N)C(=O)Nc2ccccc23)CCCC1 [Example 179] | 100 to 1000
23 | N#C[C@@H]1C[C@@]2(CN1C(=O)CC(=O)N[C@H]1CC[C@H](O)C1)C(=O)Nc1ccccc12 [Example 180] | > 1000
24 | N#C[C@@H]1C[C@@]2(CN1C(=O)CC(=O)N[C@@H]1CC[C@@H](O)C1)C(=O)Nc1ccccc12 [Example 181] | > 1000
25 | N#C[C@@H]1C[C@@]2(CN1C(=O)CC(=O)N[C@H]1CC[C@@H](O)C1)C(=O)Nc1ccccc12 [Example 182] | > 1000
26 | N#C[C@@H]1C[C@@]2(CN1C(=O)CC(=O)N[C@@H]1CC[C@H](O)C1)C(=O)Nc1ccccc12 [Example 183] | > 1000
27 | CCCC(CCC)(CCC)NC(=O)C(=O)N1C[C@]2(C[C@H]1C#N)C(=O)Nc1ccccc12 [Example 185] | 100 to 1000
28 | N#C[C@@H]1C[C@@]2(CN1C(=O)C(=O)NCc1cc(F)c(F)cc1F)C(=O)Nc1ccccc12 [Example 186] | > 1000
29 | N#C[C@@H]1C[C@@]2(CN1C(=O)C(=O)NCCc1cc(F)cc(F)c1F)C(=O)Nc1ccccc12 [Example 187] | > 1000
30 | Cc1cccc(C)c1NC(CC(=O)N(C)[C@@H](CC(C)C)C(=O)N1C[C@]2(C[C@H]1C#N)C(=O)Nc1ccccc12)C(F)(F)F (stereo partly shown) [Example 198] | < 100
31 | N#C[C@@H]1C[C@@]2(CN1C(=O)C(=O)Nc1cncc(C(F)(F)F)c1)C(=O)Nc1ccccc12 [Example 199] | > 1000
